Values after ≈ are worked out from the molar mass of the structure shown. Like-named read-outs stand apart in the source and are kept apart here.
Legend:
[1] = system: P. falciparum (chlorine-resistant W2 clone); assay: Antimalarial activity in vitro, W2 clone; type: cell-based, Plasmodium falciparum; details: for IC50: Plasmodium falciparum
[2] = system: Plasmodium falciparum (D6 clone); assay: Antimalarial activity in vitro, D6 clone; type: cell-based; details: for IC50: Plasmodium falciparum, D6
HIV-1LAV = assay: Anti-HIV-1 activity in PBM cells; type: cell-based, human immunodeficiency virus (HIV-1); details: T5
Experimental: Anti-HIV-1 activity was determined in PBM cells as described previously. See, Stock solutions (20 or 40 mM) of the compounds were prepared in sterile DMSO and then diluted to the desired concentration in growth medium. Cells were infected with the prototype HIV-1LAV at a multiplicity of infection of 0.1. Details on the infection of cells and assessment of antiviral effects was described previously. See, Schinazi, R. F.; McMillan, A.; Cannon, D.; Mathis, R.; Lloyd, R. M.; Peck, A.; Sommadossi, J.-P.; Clair, M. S.; Wilson, J.; Furman, P. A.; Painter G.; Choi, W.-B.; Liotta, D. C. Antimicrob. Agents Chemother. 1992, 36, 2423-2431 and Schinazi, R. F.; Sommadossi, J.-P.; Saalmann, V.; Cannon, D. L.; Xie, M.-Y.; Hart, G. C.; Smith, G. A.; Hahn, E. F. Antimicrob. Agents Chemother. 1990, 34, 1061-1067.

[3] = system: Mycobacterium intracellulare; assay: Activity against M. intracellulare; type: cell-based; details: T5, NA = not active
[4] = system: Mycobacterium tuberculosis H37Rv; assay: In vitro antimycobacterial activity (Microplate Alamar Blue Assay), MIC; type: cell-based; details: for MIC: Mycobacterium tuberculosis, H37RV
Cryptococcus neoformans = assay: Antifungal activity against Cryptococcus neoformans; type: cell-based; details: T5, NA = not active
Leishmania donovani = assay: Antileishmanial activity in vitro; type: cell-based
[5] = system: methicillin-resistant Staphylococcus aureus; assay: Antibacterial activity against MRS; type: cell-based; details: T5; NA = not active
Staphylococcus aureus = assay: Antibacterial activity against S. aureus; type: cell-based; details: T5; NA = not active
[6] = W2, read-out: P. falciparum (chlorine-resistant W2 clone) IC 50
[7] = T4, NA = not active, read-out: Plasmodium falciparum (D6 clone) IC 50
[8] = T4, read-out: Mycobacterium Tuberculosis (H37Rv) MIC

CCN(CC)CCCC(C)Nc1ccnc2cc(Cl)ccc12 (stereo not shown) [Chloroquine, reference compound]
IC50 [1, 6]: 0.17 µg/mL (≈ 0.531 µM)
IC50 ([1]; W2, T6, read-out: P. falciparum (W2 clone) IC50): 0.14 µg/mL (≈ 0.438 µM)
IC50 [2, 7]: 0.0155 µg/mL (≈ 0.0485 µM)
IC50 ([2]; T6): 0.01 µg/mL (≈ 0.0313 µM)

O=C1CCCN2C3C45C=C(c6nccc7c6[nH]c6ccccc67)C6CCN(CCCC/C=C\CC4)CC63C[C@@]2(CC1)O5 (stereo partly shown) [12,34-Oxamanzamine E]
EC50 (HIV-1LAV): 17.5 µM

O[C@@H]1CCCN2CC[C@@H]1O[C@@]13CC[C@@H](OC[C@]45CN6CCCC/C=C\CC[C@](O)(C=C(c7nccc8c7[nH]c7ccccc78)[C@@H]4CC6)[C@H]25)[C@@H](O)CCN1[C@@H]1[C@]2(CN4CCCC/C=C\CC[C@]1(O)C=C(c1nccc5c1[nH]c1ccccc15)[C@@H]2CC4)C3 [neo-Kauluamine]
IC50 ([3]; Mycobacterium intracellulare, read-out: IC50 M. intracellulare): 3 µg/mL (≈ 2.58 µM)
MIC [4, 8]: 2 µg/mL (≈ 1.72 µM)
IC50 (Cryptococcus neoformans; Cryptococcus neoformans, read-out: Antifungal IC50 C. neoformans): 3 µg/mL (≈ 2.58 µM)
IC50 [1, 6]: 2.8 µg/mL (≈ 2.41 µM)
IC50 [2, 7]: 1.7 µg/mL (≈ 1.46 µM)

CCOC12C=C(c3nccc4c3[nH]c3ccccc34)C3CCN(CCCCC=CCC1)CC31CC3C=CCCCCN3C21 (stereo not shown) [12-O-ethylmanzamine-A]
Leishmania donovani IC 50 (Leishmania donovani; T7): 2.8 µg/mL
Leishmania donovani IC 90 (Leishmania donovani; T7): 8.2 µg/mL

O=CC1=C[C@@]2(O)CC/C=C\CCCCN3CC[C@@H]1[C@]1(CC4/C=C\CCCCN4[C@H]12)C3 (stereo partly shown) [Ircinal A]
IC50 M. intracellulare [3]: 50 µg/mL (≈ 122 µM)
Mycobacterium Tuberculosis (H37Rv) MIC ([4]; T4): 30.2 µg/mL
EC50 (HIV-1LAV): 6.8 µM

CO[C@H]1/C=C/O[C@@]2(C)Oc3c(C)c(O)c4c(O)c(c(/C=N/N5CCN(C)CC5)c(O)c4c3C2=O)NC(=O)/C(C)=C\C=C\[C@H](C)[C@H](O)[C@@H](C)[C@@H](O)[C@@H](C)[C@H](OC(C)=O)[C@@H]1C [Rifampin, reference compound]
MIC [4, 8]: 0.5 µg/mL (≈ 0.608 µM)
MIC ([4]; T6, read-out: Mycobacterium tuberculosis MIC): 0.24 µg/mL (≈ 0.292 µM)
MIC ([4]; rifampin = positive control, read-out: MIC against Mycobacterium tuberculosis (Mtb)): 0.16 µg/mL (≈ 0.194 µM)

C[C@@H]1CC[C@H]2[C@@H](C)C(=O)O[C@@H]3O[C@@]4(C)CC[C@@H]1[C@]32OO4 [Artemisinin, reference compound]
IC50 ([1]; W2, T4, NA = not active, read-out: P. falciparum (chlorine-resistant W2 clone) IC 50): 0.0063 µg/mL (≈ 0.0223 µM)
IC50 [2, 7]: 0.01 µg/mL (≈ 0.0354 µM)

CC(C)COC12C=C(c3nccc4c3[nH]c3ccccc34)C3CCN(CCCCC=CCC1)CC31CC3C=CCCCCN3C21 (stereo not shown) [12-O-isobutylmanzamine-A]
Leishmania donovani IC 50 (Leishmania donovani; T7): 0.98 µg/mL
Leishmania donovani IC 90 (Leishmania donovani; T7): 2.6 µg/mL

COc1ccc(OC)c(NC2CCCN3C(CC2)C[C@]24CN5CCCC/C=C\CC[C@](O)(C=C(c6nccc7c6[nH]c6c(O)cccc67)C2CC5)[C@H]34)c1 (stereo partly shown) [33-(2,5-dimethoxyaniline)-manzamine-F]
P. falciparum (chlorine-resistant W2 clone) IC 50 ([1]; T8): 2.6 µg/mL
Plasmodium falciparum (D6 clone) IC 50 ([2]; T8, NA not defined): 1.7 µg/mL

O=C1CCCN2[C@@H](CC1)C[C@]13CN4CCCC/C=C\CC[C@](O)(C=C(c5nccc6c5[nH]c5ccc(O)cc56)[C@@H]1CC4)[C@H]23 [6-Hydroxymanzamine E]
IC50 M. intracellulare [3]: 3.5 µg/mL (≈ 6.03 µM)
Mycobacterium Tuberculosis (H37Rv) MIC ([4]; T4): 0.4 µg/mL
Antifungal IC50 C. neoformans (Cryptococcus neoformans): 5.5 µg/mL
P. falciparum (chlorine-resistant W2 clone) IC 50 ([1]; T4, NA = not active): 0.87 µg/mL
Plasmodium falciparum (D6 clone) IC 50 ([2]; T4, NA = not active): 0.78 µg/mL
Leishmania donovani IC 50 (Leishmania donovani; T4): 2.5 µg/mL
Leishmania donovani IC 90 (Leishmania donovani; T4): 4.3 µg/mL

Oc1ccc2[nH]c3c(C4=C[C@@]5(O)CC/C=C\CCCCN6CC[C@@H]4[C@@]4(C6)C[C@@]67CC[C@@H](CCCN6[C@H]45)O7)nccc3c2c1 [Manzamine X]
IC50 M. intracellulare [3]: 1.5 µg/mL (≈ 2.58 µM)
Antifungal IC50 C. neoformans (Cryptococcus neoformans): 3.0 µg/mL
EC50 (HIV-1LAV): 2.3 µM
P. falciparum (chlorine-resistant W2 clone) IC 50 ([1]; T4, NA = not active): 2 µg/mL
Antibacterial IC50 MRS [5]: 0.75 µg/mL
Antibacterial IC50 S. aureus (Staphylococcus aureus): 1.0 µg/mL
Plasmodium falciparum (D6 clone) IC 50 ([2]; T4, NA = not active): 0.95 µg/mL
Leishmania donovani IC 50 (Leishmania donovani; T4): 5.7 µg/mL
Leishmania donovani IC 90 (Leishmania donovani; T4): 11 µg/mL

— US20050085554A1, “Methods of treating disease through the administration of a manzamine analog or derivative” (priority 2003, published 2005)
